From PubChem BioAssay AID1322 (NMMLSC, 2008)
Active and inactive are the calls of the source. How the calls were made is not given here.

Target: Bcl-2-like protein 1 (Homo sapiens) (UniProt Q07817)
Experiment: Bim-Bcl-XL interaction inhibitors, potency, dose response, biochemical, multiplexed, bead flow cytometry, human Bcl-XL (AID 1322); on inhibition: test concentration not given here
Conditions: Bead-based flow cytometry, Bim peptide-Bcl-XL binding, MCF; for inhibition: active compounds read high

Sequence of Bcl-2-like protein 1 (Homo sapiens) (Q07817 whole entry, looked up): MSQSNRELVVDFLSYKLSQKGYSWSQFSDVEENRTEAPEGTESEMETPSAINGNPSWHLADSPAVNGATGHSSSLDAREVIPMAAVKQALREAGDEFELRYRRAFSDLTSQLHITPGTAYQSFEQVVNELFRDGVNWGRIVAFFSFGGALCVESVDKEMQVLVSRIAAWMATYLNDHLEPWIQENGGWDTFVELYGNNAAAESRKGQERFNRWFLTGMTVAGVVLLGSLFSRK

Compound | inhibition | other results
O=[N+]([O-])c1c(NCCO)cc(Sc2nc3ccccc3s2)c2nonc12 | inactive | 
CC(=O)Nc1ccc(NC2=C(Cl)C(=O)c3ccccc3C2=O)cc1 | inactive | 
Cc1c(N=C2C=CC(=O)c3ccccc32)c(=O)n(-c2ccccc2)n1C | inactive | 
COc1cc(/C=N/NC(=O)c2ccc([N+](=O)[O-])cc2Cl)cc(Br)c1O | inactive | 
COc1ccc(CC(=O)Nc2ccccc2Oc2ccccc2)cc1 |  | outcome: inactive
CSc1ccccc1NC(=O)CN(C)CC(=O)Nc1ccc(N2CCOCC2)cc1 |  | outcome: inactive
O=C(Nc1nccs1)c1ccc(COc2ccc(F)cc2)o1 | inactive | 
Cc1ccc(NC(=O)CSc2nc3ccccc3c(=O)n2CCCN2CCCCC2)cc1Cl | inactive | 
CCc1nn2cc(C(=O)c3cc(C)ccc3O)cnc2c1-c1ccc(F)cc1 | inactive | 
Cc1ccc(Nc2nc(-c3ccccc3)c(CC(=O)O)s2)cc1 | inactive | 
COc1ccc(NC(=O)c2cccs2)cc1 | inactive | 
COc1ccc(OC)c(NC(=O)CCCN2C(=S)NC(C)(C)CC2C)c1 (stereo unspecified) |  | outcome: inactive
O=C(O)c1ccccc1NSc1ccccc1[N+](=O)[O-] |  | outcome: inactive
COc1cccc(C(=O)/C=C/Nc2ccc(S(=O)(=O)Nc3onc(C)c3C)cc2)c1 | inactive | 
O=C(NCc1ccccc1)C(=O)Nc1nc(C23CC4CC(CC(C4)C2)C3)cs1 | inactive | 
Cc1ccc(/C=C2/NC(=O)N(Cc3ccccc3)C2=O)o1 |  | outcome: inactive
CCOc1ccc2nc(SCC(=O)N3c4ccccc4Sc4ccccc43)c(C#N)cc2c1 | inactive | 
COc1ccc(N2C(=O)C(Cl)=C(Nc3ccccc3O)C2=O)cc1 | inactive | 
CCN(CC)c1ccc(NC(=O)c2ccc(=O)[nH]c2)cc1S(=O)(=O)Nc1ccccc1OC | inactive | 
CS(=O)(=O)NN1C(=O)c2ccccc2NC1c1ccccc1 (stereo unspecified) |  | outcome: inactive
O=C(N/N=C/c1ccncc1)c1cccc(NC(=O)c2ccccc2Cl)c1 | inactive | 
COc1ccc(NS(=O)(=O)c2cc(NC(=O)c3ccc(C)o3)ccc2N2CCCCC2)cc1 | inactive | 

Compound | inhibition | other results
OC(COc1ccc2cc(Br)ccc2c1)CN1CCOCC1 (stereo unspecified) | inactive | 
O=C(CSc1nnc(-c2cccs2)n1Cc1ccco1)c1ccc2c(c1)OCO2 | inactive | 
COc1cc(NC(=O)c2ccc3c(c2)OCO3)ccc1NC(=O)c1ccco1 | inactive | 
CCCCCCc1cc2cc(C(=O)Nc3ccccc3)c(=O)oc2cc1O | inactive | 
COc1ccc2c3c(cccc13)N(C)N=C2C | inactive | 
COc1cccc(/C=N/Nc2nn3cnnc3c3ccccc23)c1O |  | EC50: inactive
Cc1cccc(-n2c(O)c(/C=N/N3CCOCC3)c(=O)[nH]c2=S)c1 | inactive | 
CCOC(=O)c1cc2c(=O)n3ccccc3nc2n(Cc2ccco2)c1=NC(=O)c1ccccc1OC |  | outcome: inactive
O=C1C(=O)c2ccc(-c3ccccc3)cc2-c2ccccc21 | inactive | 
Cc1cc(C)nc(/N=C(\N)N2CCc3ccccc32)n1 | inactive | 
Nc1ccc(N2CCCCCC2)cc1 | inactive | 
Cc1ccc(/C=C/C2=Cc3c(sc(NC(=O)CSc4n[nH]c(N)n4)c3C#N)C(C)(C)C2)o1 | inactive | 
N#C/C(=C(/O)CN1CCN(c2ccccc2F)CC1)c1nc(-c2ccccc2)cs1 | inactive | 
O=C(Nc1ccccn1)c1cc2ccccc2o1 | inactive | 
CCOc1cc(/C=N/NC(N)=O)ccc1OCC(=O)Nc1ccc(C)c(C)c1 | inactive | 
CN(C)S(=O)(=O)N(CC(=O)Nc1ccccc1C(F)(F)F)c1ccccc1 | inactive | 
CC1CC2=C(NC(=S)NC2c2cccc(F)c2)/C(=C/c2cccc(F)c2)C1 (stereo unspecified) |  | outcome: inactive
Cc1cc(C)nc(SCc2cc(=O)c(OC(=O)c3cccc([N+](=O)[O-])c3)co2)n1 | inactive | 
CC1=CC(=O)c2ccccc2C1=O | inactive | 
CC(C(=O)Nc1cc([N+](=O)[O-])ccc1Cl)N1CCN(c2ccc(O)cc2)CC1 (stereo unspecified) |  | outcome: inactive
O=C(C1=NN[C@@H]2C(=O)N(c3ccccc3C(F)(F)F)C(=O)[C@H]12)c1ccc2ccccc2n1 |  | outcome: inactive
COc1ccccc1Nc1nc(-c2c(C)nc3ncccn23)cs1 | inactive | 

Compound | inhibition | other results
CCCC1(C(=O)OCC)NC(c2cc(OC)c(OC)c(OC)c2)C2C(=O)N(CC)C(=O)C21 (stereo unspecified) | inactive | 
Cn1cc(CN2C[C@]3(C)C[C@H]2CC(C)(C)C3)c(-c2ccc3c(c2)OCCO3)n1 |  | outcome: inactive
Cc1cc(-c2cc(-c3ccc(Cl)cc3)nc(N)c2C#N)co1 | inactive | 
O=C(c1cccc(Br)c1)N1CCN(c2cnn(-c3ccccc3)c(=O)c2Cl)CC1 |  | outcome: inactive
CCOC(=O)CSc1nnc(-c2cccc(Cl)c2)n1CC | inactive | 
O=C(Nc1ccc(N2CCOCC2)cc1)Nc1ccc2nc(-c3ccco3)c(-c3ccco3)nc2c1 | inactive | 
O=C(O)CC/C(=C\c1cc([N+](=O)[O-])ccc1Cl)c1nc2ccccc2s1 | inactive | 
Cc1csc(SCCn2c(N3CCN(c4ccccc4)CC3)nc3c2c(=O)[nH]c(=O)n3C)n1 | inactive | 
CCOC(=O)c1[nH]cnc1C(=O)NC(C)C | inactive | 
COc1ccc(OCCNC(=O)c2ccccc2OCC(=O)N2CCCCC2)cc1 | inactive | 
CCOC(=O)CCCNC(=O)c1cncc(O)c1 | inactive | 
COc1cccc2c1C(=O)C=C(C)C2=O | inactive | 
NNC(=O)COc1ccccc1F | inactive | 
OCCC1CN(Cc2nc3c(s2)CCCC3)CCN1Cc1ccsc1 (stereo unspecified) | inactive | 
O=C(Nc1cccc(Cl)c1)Nc1ccc(Cl)cn1 | inactive | 
CCN(CC)c1ccc(NC(=O)COc2ccccc2C#N)cc1S(=O)(=O)Nc1ccccc1OC | inactive | 
Cc1ccc(-c2cc(C(=O)OCC(=O)N(C)C3CCS(=O)(=O)C3)c3ccccc3n2)o1 (stereo unspecified) | inactive | 
COc1ccc(OC)c(-n2c(-c3ccc(C)cc3)n[nH]c2=S)c1 | inactive | 
Cc1ccc(O)c(NC2=C(Cl)C(=O)N(Cc3ccccc3)C2=O)c1 | inactive | 
Cc1nonc1NC(=O)CSc1nnc(-c2ccoc2C)n1C | inactive | 
Cc1cc(NC(=O)CCSc2ccccc2)ccc1Br | inactive | 
CCOc1cc(S(=O)(=O)N2CCCCC2)ccc1F | inactive | 

Compound | inhibition | other results
C(=C\c1ccccc1)/CSc1nnc(-c2ccccn2)n1Cc1ccco1 | inactive | 
Nc1cccc(-c2cn3cccnc3n2)c1 |  | outcome: inactive
CCOC(=O)C1=C(Cc2ccc(C)cc2)C(=O)c2ccccc2C1=O | inactive | 
Cn1c(N)c(C(=O)COC(=O)c2cc(-c3ccco3)nc3ccccc23)c(=O)n(Cc2ccccc2)c1=O | inactive | 
O=C1c2ccccc2C(=O)N1c1cccc2cccnc12 |  | outcome: inactive
CNCc1ccccc1Sc1cc(O)ccc1O |  | outcome: inactive
COc1cccc(NC(=O)CSc2nncn2N)c1 | inactive | 
Nc1ccccc1N=c1ssnc1Cl | inactive | 
CC(C)CN1C(=O)/C(=C/c2ccco2)NC1=S | inactive | 
COc1cc(NC(=S)NCCCO)c(OC)cc1Cl | inactive | 
O=C(COC(=O)c1ccccn1)NC1CCCCC1 | inactive | 
CC(C)=C1C(=O)NN(c2ccc(C)c(Cl)c2)C1=O | inactive | 
O=C(Cc1ccccc1)OCCNC(=O)c1cccnc1 | inactive | 
COc1ccccc1-n1c(-c2cc(-c3ccc(F)cc3)n[nH]2)n[nH]c1=S | inactive | 
Fc1cccc(Nc2nc(-c3ccncc3)nc3ccccc23)c1 |  | outcome: inactive
O=c1[nH]c2ccc(N=Cc3c(O)ccc4cc(Br)ccc34)cc2[nH]1 | inactive | 
Oc1ccc(NCc2ccccc2OCc2ccccc2)cc1 |  | outcome: inactive
CCc1nnc(NS(=O)(=O)c2ccc(N=CC3=C(O)CC(C)(C)CC3=O)cc2)s1 | inactive | 
CNc1nc2ccccc2n1/N=C/c1cccc(OC)c1OC | inactive | 
COc1ccc(CC(=O)Nc2ccc(-c3nc4cc(C)ccc4o3)c(O)c2)cc1OC | inactive | 
Cc1[nH]c2ccccc2c1C(=O)COC(=O)c1c(-c2c(F)cccc2Cl)noc1C | inactive | 
COc1ccc(Cc2c(O)nc(SC)n(C(C)=O)c2=O)cc1 | inactive | 

Compound | inhibition | other results
COc1ccc(S(=O)(=O)NCCSc2ccccc2)cc1OC | inactive | 
COc1ccc2nc(C)cc(SCC(=O)N/N=C/c3ccc(O)c(O)c3)c2c1 | inactive | 
O=C(O)CCN1C(=O)/C(=C\c2ccc(-c3nc4ccccc4s3)o2)SC1=S | inactive | 
CN(Cc1cccs1)C(=O)CCc1c[nH]c2ccccc12 |  | outcome: inactive
COc1ccc(NC(=O)c2ccc3c(c2)NC(=O)CS3)cc1S(=O)(=O)Nc1ccc(Br)cc1 | inactive | 
COc1ccc(NC(=O)c2cc(-c3ccc(C)o3)nc3ccccc23)cc1OC | inactive | 
Cc1cc(C)c2c(N)c3cccc(C)c3nc2n1 | inactive | 
CNc1ccc(Br)cc(C(=O)/C=C/c2ccc(OC)cc2)c1=O | inactive | 
CC(=O)Nc1ccc2nc(CN3CCN(CC(C)C)C(CCO)C3)ccc2c1 (stereo unspecified) |  | outcome: inactive
CCOc1ccccc1CNc1ccc(O)cc1 |  | outcome: inactive
CCc1ccc(/C=C/C(=O)c2cc(Br)ccc(=O)c2O)cc1 | inactive | 
Cc1ccc(C(=O)NNC(=O)c2ccc3ncccc3c2)cc1 |  | outcome: inactive
Cc1ccc(-c2cc(C(=O)N3CCN(c4ncccn4)CC3)c3cc(Br)ccc3n2)o1 | inactive | 
Cc1ccc(C2=N/C(=C/c3cccs3)C(=O)N2Nc2ccccc2)cc1 | inactive | 
CC(NCc1ccc(-c2ccccc2)cc1)C(O)c1ccccc1 (stereo unspecified) |  | outcome: inactive
Cc1cc(/C=C(/C#N)C(=O)Nc2ccc(Cl)cc2)c(C)n1-c1cccnc1 | inactive | 
CCSc1ncnc2sc(C)c(C)c12 |  | outcome: inactive
N#Cc1ccc(N=c2ssnc2Cl)cc1 | inactive | 
